Measurements from the supplement of paper PMC10331698.
± gives the standard deviation of the averaged measurements.

Columns and labels:
Assay in all cases: level (log10 ratio to DMSO vehicle control); higher = higher biomarker level / cell amount than vehicle control
Conditions in all cases: in DMSO
[1] = compound: O=C(O)C(F)(F)C(F)(F)OC(F)(F)F [Perfluoro-3-methoxypropanoic acid]
Protocol: (§1)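 BioMAP Diversity Plus panel of 12 human primary cell co-culture systems (3C, 4H, LPS, SAg, BT, BF4T, BE3C, CASM3C, HDF3CGF, KF3CT, MyoF, Mphg). Compounds were added 1 h before stimulation and left for 24 h (MyoF 48 h; BT 72 h for soluble read-outs or 6 d for IgG). Biomarkers were read by ELISA, cytotoxicity by SRB, PBMC viability and proliferation by Alamar Blue. Each well value was divided by the mean of 8 DMSO control wells on the same plate and log10 transformed; duplicate blinded samples were tested at 4 concentrations.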

[2] = compound: O=C(O)C(F)(F)OC(F)(F)C(F)(F)OC(F)(F)F [Perfluoro-3,6-dioxaheptanoic acid]
Protocol: as §1

[3] = compound: FC(F)(F)C(F)(F)C(F)(F)C(F)(F)C(F)(F)C(F)(F)C(F)(F)C(F)(F)CCS [2-(Perfluorooctyl)ethanthiol]
Protocol: as §1

Heptafluorobutyramide = compound: NC(=O)C(F)(F)C(F)(F)C(F)(F)F [Heptafluorobutyramide]
Protocol: as §1

[4] = compound: O=C(O)C(F)(F)C(F)(F)C(F)(F)OC(F)(C(F)(F)F)C(F)(F)F [Perfluoro-4-isopropoxybutanoic acid]
Protocol: as §1

[5] = compound: CCN(CCO)S(=O)(=O)C(F)(F)C(F)(F)C(F)(F)C(F)(F)C(F)(F)C(F)(F)C(F)(F)C(F)(F)F [N-Ethyl-N-(2-hydroxyethyl)perfluorooctanesulfonamide]
Protocol: as §1

Perfluoropentanoic acid = compound: O=C(O)C(F)(F)C(F)(F)C(F)(F)C(F)(F)F [Perfluoropentanoic acid]
Protocol: as §1

Row | Test System | level (log10) ([1]; 6700 nM) | level (log10) ([1]; 20000 nM) | level (log10) ([1]; 60000 nM) | level (log10) ([2]; 6700 nM) | level (log10) ([2]; 20000 nM) | level (log10) ([2]; 60000 nM) | level (log10) ([3]; 6700 nM) | level (log10) ([3]; 20000 nM) | level (log10) (Heptafluorobutyramide; 6700 nM) | level (log10) (Heptafluorobutyramide; 20000 nM) | level (log10) (Heptafluorobutyramide; 60000 nM) | level (log10) ([4]; 6700 nM) | level (log10) ([4]; 20000 nM) | level (log10) ([4]; 60000 nM) | level (log10) ([5]; 6700 nM) | level (log10) ([5]; 20000 nM) | level (log10) (Perfluoropentanoic acid; 6700 nM) | level (log10) (Perfluoropentanoic acid; 20000 nM) | level (log10) (Perfluoropentanoic acid; 60000 nM)
1 | SAg:CCL2/MCP-1 | -0.007 ± 0.013 | -0.0075 ± 0.0092 | -0.0035 ± 0.0078 | 0.0125 ± 0.032 | 0.002 ± 0.035 | -0.0025 ± 0.033 | -0.0085 ± 0.019 | 0.017 ± 0.0028 | -0.0125 ± 0.015 | -0.011 ± 0.0099 | 0.0085 ± 0.037 | -0.007 ± 0.021 | 0.006 ± 0.016 | 0.039 ± 0.02 | -0.0055 ± 0.005 | -0.091 ± 0.023 | 0.0085 ± 0.021 | -0.0205 ± 0.011 | 0.023 ± 0.031
2 | SAg:CD38 | -0.007 ± 0.0042 | 0.003 ± 0.0085 | -0.0005 ± 0.012 | -0.0055 ± 0.052 | -0.003 ± 0.047 | -0.014 ± 0.024 | -0.036 ± 0.057 | -0.0245 ± 0.042 | -0.0315 ± 0.029 | -0.03 ± 0.016 | -0.021 ± 0.021 | -0.003 ± 0.014 | -0.0015 ± 0.0035 | -0.017 ± 0.014 | -0.027 ± 0.017 | -0.0955 ± 0.012 | 0.003 ± 0.017 | 0.0015 ± 0.011 | 0.002 ± 0.0057
3 | SAg:CD40 | 0.013 ± 0.0071 | 0.01 ± 0.0042 | -0.0055 ± 0.019 | -0.0425 ± 0.088 | -0.0475 ± 0.022 | -0.063 ± 0.093 | 0.0105 ± 0.011 | 0.006 ± 0.011 | -0.031 ± 0.042 | -0.039 ± 0.042 | -0.034 ± 0.068 | 0.0105 ± 0.023 | 0.0165 ± 0.005 | -0.008 ± 0.018 | 0 ± 0.028 | -0.052 ± 0.023 | 0.0105 ± 0.005 | 0.0025 ± 0.0064 | -0.001 ± 0.025
4 | SAg:CD62E/E-Selectin | 0.004 ± 0.0099 | -0.01 ± 0.018 | -0.016 ± 0.018 | -0.0015 ± 0.0021 | 0.001 ± 0.0042 | 0.021 ± 0.0057 | -0.0115 ± 0.0064 | -0.0015 ± 0.022 | 0.0035 ± 0.023 | -0.008 ± 0.047 | -0.0065 ± 0.022 | -0.0025 ± 0.0021 | 0.0125 ± 0.015 | -0.01 ± 0.023 | 0.0625 ± 0.013 | 0.079 ± 0.016 | 0.0005 ± 0.0064 | -0.012 ± 0.013 | 0.0195 ± 0.025
5 | SAg:CD69 | 0.0005 ± 0.00071 | 0.0225 ± 0.011 | -0.0005 ± 0.018 | -0.024 ± 0.0085 | -0.013 ± 0.014 | -0.029 ± 0.0028 | -0.0165 ± 0.0092 | -0.035 ± 0.0014 | 0.031 ± 0.034 | 0.02 ± 0.016 | 0.0165 ± 0.05 | -0.0085 ± 0.00071 | -0.0055 ± 0.005 | -0.016 ± 0.0042 | -0.043 ± 0.016 | -0.085 ± 0.04 | 0.002 ± 0.016 | -0.0155 ± 0.028 | -0.0165 ± 0.033
6 | SAg:CXCL8/IL-8 | 0.021 ± 0.0028 | -0.017 ± 0.034 | 0.0095 ± 0.04 | 0.0055 ± 0.0035 | 0.034 ± 0.0071 | 0.0735 ± 0.04 | -0.0215 ± 0.032 | 0.027 ± 0.082 | 0.015 ± 0.013 | 0.011 ± 0.017 | 0.0085 ± 0.021 | 0.009 ± 0.037 | 0.02 ± 0.02 | 0.071 ± 0.023 | 0.0095 ± 0.025 | -0.167 ± 0.03 | -0.012 ± 0.041 | -0.018 ± 0.044 | -0.013 ± 0.088
7 | SAg:CXCL9/MIG | 0.001 ± 0.0057 | 0.006 ± 0.0042 | -0.002 ± 0.0099 | 0.006 ± 0.014 | 0.001 ± 0.014 | 0.0055 ± 0.0078 | 0.0015 ± 0.016 | 0.01 ± 0.0042 | 0.0075 ± 0.0021 | -0.0025 ± 0.012 | 0.0005 ± 0.013 | -0.007 ± 0.0099 | 0.002 ± 0.0042 | 0.002 ± 0.0071 | -0.0135 ± 0.005 | -0.0075 ± 0.013 | -0.0115 ± 0.0078 | -0.014 ± 0.0099 | 0.004 ± 0.021
8 | SAg:PBMC Cytotoxicity | 0.034 ± 0.014 | 0.016 ± 0.013 | -0.0115 ± 0.011 | -0.0035 ± 0.029 | 0.002 ± 0.0042 | 0.013 ± 0.0028 | -0.025 ± 0.023 | -0.0015 ± 0.0035 | 0.001 ± 0.014 | -0.0125 ± 0.021 | 0.019 ± 0.0099 | 0.0225 ± 0.026 | 0.0245 ± 0.028 | 0.0425 ± 0.022 | -0.039 ± 0.052 | -0.0865 ± 0.042 | -0.0105 ± 0.023 | -0.0135 ± 0.012 | 0.0145 ± 0.022
9 | SAg:Proliferation | -0.0075 ± 0.035 | -0.015 ± 0.033 | 0.0005 ± 0.026 | -0.023 ± 0.061 | -0.005 ± 0.025 | 0.0115 ± 0.04 | 0.056 ± 0.016 | 0.0225 ± 0.03 | -0.0035 ± 0.03 | -0.0055 ± 0.00071 | -0.0265 ± 0.011 | -0.018 ± 0.0042 | -0.007 ± 0.0028 | 0.0175 ± 0.04 | -0.098 ± 0.0057 | -0.335 ± 0.098 | -0.0195 ± 0.04 | 0.0205 ± 0.046 | 0.0175 ± 0.08
10 | SAg:SRB | -0.0025 ± 0.0078 | -0.0005 ± 0.0021 | -0.0045 ± 0.0064 | -0.0085 ± 0.0035 | -0.0175 ± 0.00071 | -0.008 ± 0.0085 | 0.002 ± 0.0014 | -0.004 ± 0.0014 | -0.018 ± 0.025 | -0.0125 ± 0.011 | -0.0095 ± 0.018 | -0.001 ± 0.018 | -0.0085 ± 0.016 | -0.018 ± 0.0085 | -0.046 ± 0.0057 | -0.118 ± 0.024 | -0.007 ± 0.0099 | -0.0035 ± 0.00071 | 0.0055 ± 0.015
